Measured values from article PMC4440585 (Biochemistry, 2015).

Biological target: mitochondrial complex I (Rattus norvegicus, UniProt A6K8N6+P03889+Q641Y2)
Test: NADH oxidation at […] nm, NADH:ubiquinone-1 activity of solubilized mitochondria
Type: biochemical
Settings: read-out: % inhibition at 25 mM

`CN(C)C(=N)NC(=N)N` [metformin] gave an inhibition at 25000 µM of 12.1%.
